Measurements: PubChem BioAssay AID248 (DTP/NCI, 2004)
Values joined by “and” are separate entries in the source; they are usually repeats but may differ in a detail not shown here. Equal entries are not always repeated. Inconclusive results and toxic doses are left out. Peptide text beside a SMILES is read from it.

System: L1210 leukemia ip in BDF1 mice, survival T/C
Test: NCI In Vivo Anticancer Drug Screen. Data for tumor model L1210 Leukemia (intraperitoneal) in B6D2F1 (BDF1) mice
Conditions: endpoint: mean survival time, higher = longer survival
How it was run: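 Survival endpoint. Drug-treated group vs vehicle group, expressed as T divided by C. Tumor passaged by transplantation.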

[1] = dose: 100.0 mg/kg/injection, schedule: Q01DX001 (ip), vehicle: carboxymethylcellulose (CMC)
[2] = dose: 200.0 mg/kg/injection, schedule: Q01DX001 (ip), vehicle: carboxymethylcellulose (CMC)
[3] = dose: 100.0 mg/kg/injection, schedule: Q04DX003 (ip), vehicle: Klucel (hydroxypropylcellulose) (HPC)
[4] = dose: 200.0 mg/kg/injection, schedule: Q04DX003 (ip), vehicle: Klucel (hydroxypropylcellulose) (HPC)
[5] = dose: 400.0 mg/kg/injection, schedule: Q04DX003 (ip), vehicle: Klucel (hydroxypropylcellulose) (HPC)
[6] = dose: 100.0 mg/kg/injection, schedule: Q04DX002 (ip), vehicle: saline with Tween-80
[7] = dose: 100.0 mg/kg/injection, schedule: Q01DX009 (ip), vehicle: saline
[8] = dose: 200.0 mg/kg/injection, schedule: Q01DX009 (ip), vehicle: saline
[9] = dose: 400.0 mg/kg/injection, schedule: Q01DX009 (ip), vehicle: saline
[10] = dose: 100.0 mg/kg/injection, schedule: Q04DX002 (ip), vehicle: Klucel (hydroxypropylcellulose) (HPC)
[11] = dose: 200.0 mg/kg/injection, schedule: Q04DX002 (ip), vehicle: Klucel (hydroxypropylcellulose) (HPC)
[12] = dose: 400.0 mg/kg/injection, schedule: Q04DX002 (ip), vehicle: Klucel (hydroxypropylcellulose) (HPC)

With CC(NC(=O)C(CCC(=O)O)NC(=O)C(N)Cc1c[nH]c2ccccc12)C(=O)NCC(=O)NC(Cc1c[nH]c2ccccc12)C(=O)NC(CCC(=O)O)C(=O)NC(C)C(=O)NCC(=O)NCC(=O)O (stereo unspecified) (H-WEAGWEAGG-OH; configuration not given here) the T/C (dose: 50.0 mg/kg/injection, schedule: Q01DX001 (ip), vehicle: carboxymethylcellulose (CMC)) was 96 % of control, the T/C [1] was 98 % of control and the T/C [2] was 96 % of control.

In the case of CCCCCC=C(c1ccccc1)c1ccccc1, the T/C (dose: 100.0 mg/kg/injection, schedule: Q01DX001 (ip), vehicle: saline with Tween-80) was 92 % of control, the T/C (dose: 200.0 mg/kg/injection, schedule: Q01DX001 (ip), vehicle: saline with Tween-80) was 104 % of control and the T/C (dose: 400.0 mg/kg/injection, schedule: Q01DX001 (ip), vehicle: saline with Tween-80) was 95 % of control.

With Cc1ccc(C)c(OS(=O)(=O)c2ccc([N+](=O)[O-])cc2)c1 the T/C (dose: 100.0 mg/kg/injection, schedule: Q01DX009 (ip), vehicle: Klucel (hydroxypropylcellulose) (HPC)) was 98 % of control, the T/C [3] was 100 % of control and the T/C (dose: 200.0 mg/kg/injection, schedule: Q01DX009 (ip), vehicle: Klucel (hydroxypropylcellulose) (HPC)) was 92 % of control. For the same compound, the T/C [4] was 91 % of control, the T/C (dose: 400.0 mg/kg/injection, schedule: Q01DX009 (ip), vehicle: Klucel (hydroxypropylcellulose) (HPC)) was 97 % of control and the T/C [5] was 89 % of control.

COC(=O)CN(C(=S)c1ccccc1)c1ccccc1 was tested, and the T/C [3] was 104 % of control, the T/C [4] was 96 % of control and the T/C [5] was 94 % of control.

Cc1c2ccncc2c(C)c2c1[nH]c1ccc(O)cc12 was tested, and the T/C (dose: 3.1 mg/kg/injection, schedule: Q01DX009 (ip), vehicle: saline with Tween-80) was 158 % of control, the T/C (dose: 6.25 mg/kg/injection, schedule: Q01DX009 (ip), vehicle: saline with Tween-80) was 100 % of control and the T/C (dose: 6.3 mg/kg/injection, schedule: Q04DX003 (ip), vehicle: saline with Tween-80) was 122 % of control. For the same compound, the T/C (dose: 12.5 mg/kg/injection, schedule: Q01DX001 (oral), vehicle: saline with Tween-80) was 104 % of control, the T/C (dose: 12.5 mg/kg/injection, schedule: Q01DX009 (ip), vehicle: saline with Tween-80) was 98 % of control and the T/C (dose: 25.0 mg/kg/injection, schedule: Q01DX001 (oral), vehicle: saline with Tween-80) was 106 % of control. The T/C (dose: 50.0 mg/kg/injection, schedule: Q01DX001 (oral), vehicle: saline with Tween-80) was 104 % of control, the T/C (dose: 50.0 mg/kg/injection, schedule: Q04DX003 (ip), vehicle: saline with Tween-80) was 98 % of control and the T/C (dose: 100.0 mg/kg/injection, schedule: Q01DX001 (oral), vehicle: saline with Tween-80) was 114 % of control. The T/C (dose: 200.0 mg/kg/injection, schedule: Q01DX001 (oral), vehicle: saline with Tween-80) was 112 % of control.

For CCCCCCCC(=O)NO, the T/C (dose: 100.0 mg/kg/injection, schedule: Q04DX003 (ip), vehicle: saline with Tween-80) was 98 % of control, the T/C (dose: 200.0 mg/kg/injection, schedule: Q04DX003 (ip), vehicle: saline with Tween-80) was 102 % of control and the T/C (dose: 400.0 mg/kg/injection, schedule: Q04DX003 (ip), vehicle: saline with Tween-80) was 102 % of control.

With Cc1ccc2ccccc2[n+]1[O-] the T/C (dose: 25.0 mg/kg/injection, schedule: Q01DX009 (ip), vehicle: saline with Tween-80) was 100 % of control, the T/C (dose: 25.0 mg/kg/injection, schedule: Q04DX002 (ip), vehicle: saline with Tween-80) was 93 % of control and the T/C (dose: 50.0 mg/kg/injection, schedule: Q01DX009 (ip), vehicle: saline with Tween-80) was 96 % of control. The T/C (dose: 50.0 mg/kg/injection, schedule: Q04DX002 (ip), vehicle: saline with Tween-80) was 104 % of control, the T/C (dose: 75.0 mg/kg/injection, schedule: Q01DX001 (ip), vehicle: carboxymethylcellulose (CMC)) was 94 % of control and the T/C (dose: 100.0 mg/kg/injection, schedule: Q01DX009 (ip), vehicle: saline with Tween-80) was 96 % of control. For the same compound, the T/C [6] was 96 % of control and the T/C (dose: 150.0 mg/kg/injection, schedule: Q01DX001 (ip), vehicle: carboxymethylcellulose (CMC)) was 96 % of control.

For CCOC(=O)C1(O)c2ccccc2NC(=S)N1CC(Br)CBr (stereo unspecified), the T/C [7] was 100 % of control, the T/C (dose: 100.0 mg/kg/injection, schedule: Q04DX002 (ip), vehicle: saline) was 90 % of control and the T/C [8] was 93 % of control. For the same compound, the T/C (dose: 200.0 mg/kg/injection, schedule: Q04DX002 (ip), vehicle: saline) was 97 % of control, the T/C [9] was 102 % of control and the T/C (dose: 400.0 mg/kg/injection, schedule: Q04DX002 (ip), vehicle: saline) was 103 % of control.

With O=[N+]([O-])C1CCCCCCCCCCC1 the T/C (dose: 100.0 mg/kg/injection, schedule: Q01DX001 (ip), vehicle: other) was 96 % of control, the T/C (dose: 200.0 mg/kg/injection, schedule: Q01DX001 (ip), vehicle: other) was 100 % of control and the T/C (dose: 400.0 mg/kg/injection, schedule: Q01DX001 (ip), vehicle: other) was 96 % of control.

CS(=O)(=O)OCCN(CCOS(C)(=O)=O)c1ccc(C=O)cc1 was tested, and the T/C (dose: 3.8 mg/kg/injection, schedule: Q01DX009 (ip), vehicle: saline) was 122 % of control, the T/C (dose: 6.0 mg/kg/injection, schedule: Q01DX001 (ip), vehicle: saline) was 112 % of control and the T/C (dose: 7.5 mg/kg/injection, schedule: Q01DX009 (ip), vehicle: saline) was 113 % of control. The T/C (dose: 12.0 mg/kg/injection, schedule: Q01DX001 (ip), vehicle: saline) was 118 % of control, the T/C (dose: 15.0 mg/kg/injection, schedule: Q01DX009 (ip), vehicle: saline) was 122 % of control and the T/C (dose: 25.0 mg/kg/injection, schedule: Q01DX001 (ip), vehicle: saline) was 120 % of control. For the same compound, the T/C (dose: 30.0 mg/kg/injection, schedule: Q01DX009 (ip), vehicle: saline) was 116 % of control, the T/C (dose: 60.0 mg/kg/injection, schedule: Q01DX009 (ip), vehicle: saline) was 116 % of control and 118 % of control and the T/C (dose: 75.0 mg/kg/injection, schedule: Q01DX001 (ip), vehicle: saline) was 104 % of control. The T/C (dose: 99.0 mg/kg/injection, schedule: Q01DX009 (ip), vehicle: saline) was 110 % of control.

With CC(C)N(C(=O)Nc1ccc(Cl)cc1)C1CCCCC1 the T/C (dose: 87.5 mg/kg/injection, schedule: Q04DX003 (ip), vehicle: carboxymethylcellulose (CMC)) was 101 % of control, the T/C (dose: 175.0 mg/kg/injection, schedule: Q04DX003 (ip), vehicle: carboxymethylcellulose (CMC)) was 96 % of control and the T/C (dose: 350.0 mg/kg/injection, schedule: Q04DX003 (ip), vehicle: carboxymethylcellulose (CMC)) was 95 % of control.

With Nc1cc2c(cc1Cl)-c1ccc([N+](=O)[O-])cc1/C2=N\O the T/C [1] was 104 % of control, the T/C [2] was 116 % of control and the T/C (dose: 400.0 mg/kg/injection, schedule: Q01DX001 (ip), vehicle: carboxymethylcellulose (CMC)) was 104 % of control.

OC(Cc1cncc(CC(O)(C(F)(F)F)C(F)(F)F)n1)(C(F)(F)F)C(F)(F)F was tested, and the T/C [7] was 95 % of control, the T/C (dose: 100.0 mg/kg/injection, schedule: Q04DX003 (ip), vehicle: saline) was 96 % of control and the T/C [8] was 105 % of control. The T/C (dose: 200.0 mg/kg/injection, schedule: Q04DX003 (ip), vehicle: saline) was 92 % of control, the T/C [9] was 98 % of control and the T/C (dose: 400.0 mg/kg/injection, schedule: Q04DX003 (ip), vehicle: saline) was 97 % of control.

For COC(=N)c1ccc(C)c(I)c1, the T/C [10] was 91 % of control, the T/C [11] was 98 % of control and the T/C [12] was 94 % of control.

O=[N+]([O-])c1ccccc1C1CCCCC1 was tested, and the T/C [6] was 89 % of control, the T/C (dose: 200.0 mg/kg/injection, schedule: Q04DX002 (ip), vehicle: saline with Tween-80) was 93 % of control and the T/C (dose: 400.0 mg/kg/injection, schedule: Q04DX002 (ip), vehicle: saline with Tween-80) was 100 % of control.

With CN(C)CCC(C(=O)c1ccccc1)c1ccccn1 (stereo unspecified) the T/C (dose: 55.0 mg/kg/injection, schedule: Q01DX Z (ip), vehicle: saline) was 100 % of control, the T/C (dose: 83.0 mg/kg/injection, schedule: Q01DX Z (ip), vehicle: saline) was 107 % of control and the T/C (dose: 125.0 mg/kg/injection, schedule: Q01DX Z (ip), vehicle: saline) was 96 % of control.

For CCCCCCCC/C=C\CCCCCCCC(=O)O.[Cu+2], the T/C (dose: 100.0 mg/kg/injection, schedule: Q01DX001 (ip), vehicle: saline) was 105 % of control and the T/C (dose: 200.0 mg/kg/injection, schedule: Q01DX001 (ip), vehicle: saline) was 96 % of control.

In the case of CC(=O)Oc1c2ccccc2cc2c1ccc1ccccc12, the T/C [10] was 119 % of control, the T/C [11] was 100 % of control and the T/C [12] was 106 % of control.
